Experimental data from ChEMBL document CHEMBL2029247, “Synthesis and structure-activity relationship of aminopyridines with substituted benzoxazoles as c-Met kinase inhibitors” (Bioorg Med Chem Lett, 2012).

Columns and labels:
cells = details: Homo sapiens, Hs746T, 72 h
Description: Cytotoxicity against human Hs 746T cells after 72 hrs by WST-8 assay

[1] = biological target: Hepatocyte growth factor receptor (Homo sapiens, UniProt P08581); assay: Inhibition of recombinant c-Met by time resolved-fluorescence resonance energy transfer analysis
[2] = biological target: T1, Receptor-type tyrosine-protein kinase FLT3 (Homo sapiens, UniProt P36888); assay: Inhibition of recombinant FLT3 by time resolved-fluorescence resonance energy transfer analysis
T1 sequence (P36888 whole entry): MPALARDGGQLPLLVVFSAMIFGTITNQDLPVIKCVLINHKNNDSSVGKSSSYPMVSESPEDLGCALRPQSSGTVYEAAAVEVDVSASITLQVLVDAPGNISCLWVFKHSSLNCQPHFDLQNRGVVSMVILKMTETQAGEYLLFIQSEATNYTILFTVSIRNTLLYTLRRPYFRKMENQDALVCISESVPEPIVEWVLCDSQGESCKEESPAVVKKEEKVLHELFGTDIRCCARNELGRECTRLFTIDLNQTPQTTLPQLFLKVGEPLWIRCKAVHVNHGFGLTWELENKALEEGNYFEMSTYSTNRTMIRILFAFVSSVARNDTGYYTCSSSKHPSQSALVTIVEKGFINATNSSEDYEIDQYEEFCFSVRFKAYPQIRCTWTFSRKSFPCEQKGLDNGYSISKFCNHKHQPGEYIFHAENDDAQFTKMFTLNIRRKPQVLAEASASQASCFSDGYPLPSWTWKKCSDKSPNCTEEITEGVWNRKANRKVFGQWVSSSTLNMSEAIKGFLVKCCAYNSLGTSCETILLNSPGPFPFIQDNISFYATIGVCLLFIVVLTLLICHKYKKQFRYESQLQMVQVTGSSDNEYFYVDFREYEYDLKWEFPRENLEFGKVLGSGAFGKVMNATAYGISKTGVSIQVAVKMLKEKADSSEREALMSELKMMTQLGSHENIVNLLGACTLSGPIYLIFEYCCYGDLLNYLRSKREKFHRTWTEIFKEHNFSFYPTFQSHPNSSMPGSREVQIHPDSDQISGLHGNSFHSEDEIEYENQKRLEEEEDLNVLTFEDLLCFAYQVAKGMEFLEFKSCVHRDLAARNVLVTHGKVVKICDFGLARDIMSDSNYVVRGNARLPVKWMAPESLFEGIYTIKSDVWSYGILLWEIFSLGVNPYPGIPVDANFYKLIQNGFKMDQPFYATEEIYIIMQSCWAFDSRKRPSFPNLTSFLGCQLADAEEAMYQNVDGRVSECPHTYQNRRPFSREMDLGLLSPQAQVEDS

[3] = biological target: Receptor-type tyrosine-protein kinase FLT3 (Homo sapiens, UniProt P36888, D835Y); assay: Inhibition of FLT3 D835Y mutant
[4] = biological target: Macrophage-stimulating protein receptor (Homo sapiens, UniProt Q04912); assay: Inhibition of Ron
Aurora kinase A = biological target: T2, Aurora kinase A (Homo sapiens, UniProt O14965); assay: Inhibition of Aurora A
T2 sequence (O14965 whole entry): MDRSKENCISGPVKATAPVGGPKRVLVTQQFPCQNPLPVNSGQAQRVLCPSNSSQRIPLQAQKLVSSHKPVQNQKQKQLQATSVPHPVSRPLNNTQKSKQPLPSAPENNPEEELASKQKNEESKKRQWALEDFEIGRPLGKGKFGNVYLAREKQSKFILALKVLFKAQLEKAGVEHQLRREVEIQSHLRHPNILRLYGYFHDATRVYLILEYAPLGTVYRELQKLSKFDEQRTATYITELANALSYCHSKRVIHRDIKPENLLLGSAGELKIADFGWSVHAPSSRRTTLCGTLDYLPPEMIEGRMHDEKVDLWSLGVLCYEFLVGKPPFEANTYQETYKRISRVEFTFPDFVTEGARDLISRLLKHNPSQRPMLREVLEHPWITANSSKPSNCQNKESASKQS

## Nc1ncc(-c2cnn(C3CCNCC3)c2)cc1-c1nc2ccc(O)c(-c3cnccn3)c2o1
cells
  IC50: 180 nM

## CC(=O)Nc1ccc2oc(-c3cc(-c4cnn(C5CCNCC5)c4)cnc3N)nc2c1 [listing 1 of 2 here]
[1]
  IC50: 540 nM

## CC(=O)c1ccc2nc(-c3cc(-c4cnn(C5CCNCC5)c4)cnc3N)oc2c1
[1]
  IC50: 800 nM

## CC(O)c1ccc2nc(-c3cc(-c4cnn(C5CCNCC5)c4)cnc3N)oc2c1 (stereo not drawn)
[1]
  IC50: 130 nM

## Nc1ncc(-c2cnn(C3CCNCC3)c2)cc1-c1nc2ccc(NC(=O)Nc3ccccc3)cc2o1
[1]
  IC50: 130 nM

## Nc1ncc(-c2cnn(C3CCNCC3)c2)cc1-c1nc2cc(O)ccc2o1
[1]
  IC50: 22 nM

## Nc1ncc(-c2cnn(C3CCNCC3)c2)cc1-c1nc2cc(Cl)cc(F)c2o1
[1]
  IC50: 41 nM

## Cn1cc(-c2cnc(N)c(-c3nc4ccc(Cl)cc4o3)c2)cn1
[1]
  IC50: 1700 nM

## Cc1ccc(S(=O)(=O)NC(=O)Nc2ccc3nc(-c4cc(-c5cnn(C6CCNCC6)c5)cnc4N)oc3c2)cc1
[1]
  IC50: 45 nM

## CC(=O)N1CCC(n2cc(-c3cnc(N)c(-c4nc5c(C)c(O)c(C)cc5o4)c3)cn2)CC1
[1]
  IC50: 28 nM

## CC(=O)Nc1ccc2oc(-c3cc(-c4cnn(C5CCNCC5)c4)cnc3N)nc2c1 [listing 2 of 2 here]
[1]
  IC50: 540 nM

## CC(=O)N1CCC(n2cc(-c3cnc(N)c(-c4nc5cc(O)c(C)cc5o4)c3)cn2)CC1
[1]
  IC50: 51 nM

## Nc1ncc(-c2cnn(C3CCNCC3)c2)cc1-c1nc2ccc(O)c(-c3ccccc3)c2o1
[2]
  IC50: 14 nM
[1]
  IC50: 48 nM
cells
  IC50: 10 nM

## Nc1ncc(-c2cnn(C3CCNCC3)c2)cc1-c1nc2ccc(O)c(-c3cccnc3)c2o1
[1]
  IC50: 4 nM

## Nc1ncc(-c2cnn(C3CCNCC3)c2)cc1-c1nc2ccc(Nc3ccc(F)cc3)cc2o1
[1]
  IC50: 410 nM

## Cc1cc2oc(-c3cc(-c4cnn(C5CCNCC5)c4)cnc3N)nc2cc1O
cells
  IC50: 12 nM

## Nc1ncc(-c2cnn(C3CCNCC3)c2)cc1-c1nc2ccc(Nc3ncccn3)cc2o1
[1]
  IC50: 63 nM

## Nc1ncc(-c2cnn(C3CCNCC3)c2)cc1-c1nc2ccc(Oc3ncccn3)cc2o1
[1]
  IC50: 23 nM

## Nc1ncc(-c2cnn(C3CCNCC3)c2)cc1-c1nc2ccc(NS(=O)(=O)c3ccc(F)cc3)cc2o1
[1]
  IC50: 67 nM

## Nc1ncc(-c2cnn(C3CCNCC3)c2)cc1-c1nc2ccc(Oc3ccncn3)cc2o1
[1]
  IC50: 34 nM

## Nc1ccc2nc(-c3cc(-c4cnn(C5CCNCC5)c4)cnc3N)oc2c1
[2]
  IC50: 3.6 nM
[1]
  IC50: 14 nM
cells
  IC50: 3700 nM

## Nc1ccc2oc(-c3cc(-c4cnn(C5CCNCC5)c4)cnc3N)nc2c1
[1]
  IC50: 56 nM

## CS(=O)(=O)Nc1ccc2nc(-c3cc(-c4cnn(C5CCNCC5)c4)cnc3N)oc2c1
[1]
  IC50: 88 nM

## COc1ccc(-c2cccc3nc(-c4cc(-c5cnn(C6CCNCC6)c5)cnc4N)oc23)cc1
[1]
  IC50: 77 nM

## Nc1ncc(-c2cnn(C3CCNCC3)c2)cc1-c1nc2cccc(-c3ccccn3)c2o1
cells
  IC50: 240 nM

## Nc1ncc(-c2cnn(C3CCNCC3)c2)cc1-c1nc2ccc(-c3cccnc3)cc2o1
[1]
  IC50: 28 nM

## Nc1ncc(-c2cnn(C3CCN(CCO)CC3)c2)cc1-c1nc2ccc(F)cc2o1
[1]
  IC50: 90 nM

## Cn1cc(-c2cnc(N)c(-c3nc4cccc(-c5ccccn5)c4o3)c2)cn1
[1]
  IC50: 14 nM

## CC(C)Nc1cccc2nc(-c3cc(-c4cnn(C5CCNCC5)c4)cnc3N)oc12
[1]
  IC50: 130 nM

## Nc1ncc(-c2cnn(C3CCNCC3)c2)cc1-c1nc2ccc(-c3cc[nH]n3)cc2o1
[1]
  IC50: 210 nM

## Cc1cc2nc(-c3cc(-c4cnn(C5CCNCC5)c4)cnc3N)oc2cc1O
[1]
  IC50: 180 nM

## Nc1ncc(-c2cnn(CCO)c2)cc1-c1nc2cccc(-c3ccccn3)c2o1
[1]
  IC50: 53 nM

## CC(=O)N1CCC(n2cc(-c3cnc(N)c(-c4nc5ccc(Cl)cc5o4)c3)cn2)CC1
[1]
  IC50: 220 nM

## Nc1ncc(-c2cnn(C3CCNCC3)c2)cc1-c1nc2ccc(O)cc2o1
[3]
  IC50: 0.3 nM
[2]
  IC50: 4 nM
[1]
  IC50: 19 nM
cells
  IC50: 450 nM
[4]
  IC50: 14 nM
Aurora kinase A
  IC50: 90 nM

## CCCNc1ccc2nc(-c3cc(-c4cnn(C5CCNCC5)c4)cnc3N)oc2c1
[1]
  IC50: 150 nM

## Cc1cc2oc(-c3cc(-c4cnn(C5CCNCC5)c4)cnc3N)nc2c(C)c1O
[1]
  IC50: 3 nM

## CNc1ccc2oc(-c3cc(-c4cnn(C5CCNCC5)c4)cnc3N)nc2c1
[1]
  IC50: 160 nM

## Cc1c(O)ccc2nc(-c3cc(-c4cnn(C5CCNCC5)c4)cnc3N)oc12
[2]
  IC50: 34 nM
[1]
  IC50: 0.2 nM
cells
  IC50: 35 nM

## CCc1cc2oc(-c3cc(-c4cnn(C5CCNCC5)c4)cnc3N)nc2cc1O
cells
  IC50: 22 nM

## Nc1ncc(-c2cnn(C3CCNCC3)c2)cc1-c1nc2cccc(O)c2o1
[1]
  IC50: 110 nM

## Nc1ncc(-c2cnn(C3CCNCC3)c2)cc1-c1nc2cc(Cl)ccc2o1
[1]
  IC50: 53 nM

## CN1CCC(n2cc(-c3cnc(N)c(-c4nc5ccc(F)cc5o4)c3)cn2)CC1
[1]
  IC50: 240 nM
